The text below walks through data of patent US20110263642A1, “METHODS FOR TREATMENT OF MULTIPLE SCLEROSIS” (FibroGen, Inc., priority 2008, published 2011).

For the test, the system named is Oligodendrocytes (MO3.13 cells). Description: Ceramide-induced cell death of oligodendrocytes, Calcein AM viability. The test is classed as cell-based. Particulars: for viability at 20 µM: ceramide 2.25 μM, compound 20 μM, non-ceramide control = 100. The source says: (See e.g., Craighead et al. (2000) Neurosci Lett. 278:125-8; Jana et al. (2007) J Neuroimmune Pharmacol. 2:184-93; Jana et al. (2009) J Neurol Sci. 278:5-15; Singh et al. (1998) J Biol. Chem. 273:20354-62.) In this model, addition of ceramide to cultured oligodendrocytes results in oxidative stress-induced cell death (i.e. apoptosis). The effect of compounds and methods of the present invention on the ability to improve oligodendrocyte viability following ceramide challenge was examined as follows. Oligodendrocytes (MO3.13 cells; Cedarlane Laboratories, Burlington, N.C.) were plated in 96-well culture dishes at a density of 4000 cells per well and cultured at 37° C., 10% CO2 in DMEM containing L-glutamine, sodium pyruvate, and 25 mM glucose (Mediatech Inc., Manassas, Va.) and supplemented with 10% FBS (Invitrogen Corporation, Carlsbad, Calif.). The next day, the plating media was removed and replaced with DMEM containing L-glutamine (Invitrogen Corporation, Carlsbad, Calif.) and supplemented with 5.5 mM glucose. Cells were then treated with vehicle (0.015% DMSO) or ceramide (Sigma-Aldrich, St. Louis, Mo.) plus vehicle (0.05% DMSO) or a compound of the invention (20 μM).
For cells treated longer than 3 days, half the media was removed after the third day of treatment and replaced with an equal volume of fresh treatment media containing vehicle (0.015% DMSO) or ceramide plus vehicle (0.05% DMSO) or a compound of the invention.
Cell viability was assessed 3, 4, and 5 days after treatment using the following protocol. Treatment media was removed from the cells and 100 ul of 1.67 uM Calcein AM reagent (Invitrogen Corporation, Carlsbad, Calif.) prepared in DMEM containing L-glutamine (Invitrogen Corporation, Carlsbad, Calif.) and supplemented with 5.5 mM glucose was added to each well. Cells were returned to 37° C. in a 10% CO2 incubator for approximately 30 minutes before assessing fluorescence (Ex 485 nm/Em 538 nm) using a microplate reader (Molecular Devices, Sunnyvale, Calif.). Images were taken of representative wells using a fluorescent microscope equipped with a camera (Nikon, Melville, N.Y.) and imaging software (Nikon, Melville, N.Y.).

Molecules are shown by their SMILES. Read-outs that look alike come from different tables or passages of the source.

Consider `N#Cc1nc(C(=O)NCC(=O)O)c(O)c2c(Oc3ccccc3)cccc12` [Compound A, [(1-Cyano-4-hydroxy-5-phenoxy-isoquinoline-3-carbonyl)-amino]-acetic acid], for which the viability at 20 µM reads like this: (72 h, read-out: % Viable at Day 3) 82%; (96 h, read-out: % Viable at Day 4) 46%; (120 h, read-out: % Viable at Day 5) 33%. Further, the “increase in viability compared to vehicle treated oligodendrocytes” value (ceramide-challenged, day 5) is listed as 3 fold.
